Data on ten compounds can be found in patent publication US5631257A, “Benzoxazole derivatives” (Meiji Seika Kaisha, Ltd., priority 1993, dated 1997).

Assay [1] addresses T1, 5-HT3 receptor (Mus musculus, UniProt P23979).
T1 construct: membrane fraction prepared from rat N1E-115 cells; endogenous in cells; host or cells: N1E-115 cells, membrane fraction
T1 sequence (P23979 24-483 isoform P23979-2 limits assumed): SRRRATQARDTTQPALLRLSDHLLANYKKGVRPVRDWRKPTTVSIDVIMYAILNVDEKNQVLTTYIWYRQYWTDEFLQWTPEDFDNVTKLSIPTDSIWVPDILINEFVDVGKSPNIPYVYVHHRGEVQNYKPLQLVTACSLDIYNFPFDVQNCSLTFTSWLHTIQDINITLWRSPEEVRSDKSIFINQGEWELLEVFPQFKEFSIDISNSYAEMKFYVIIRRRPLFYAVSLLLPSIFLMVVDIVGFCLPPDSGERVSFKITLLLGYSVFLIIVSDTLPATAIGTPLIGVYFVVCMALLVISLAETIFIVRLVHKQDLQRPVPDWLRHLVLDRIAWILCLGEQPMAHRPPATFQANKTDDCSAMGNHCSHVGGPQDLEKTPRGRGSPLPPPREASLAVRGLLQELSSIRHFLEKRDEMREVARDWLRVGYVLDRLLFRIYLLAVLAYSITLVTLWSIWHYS
Kind of assay: 5-HT3 receptor binding affinity (inhibition of [^3 H]-GR65630 binding). Conditions: membrane fraction from rat N1E-115 cells. The text has this:
Using a membrane fraction prepared from rat N1E-115 cells in accordance with the procedure of Lummis et al. (European Journal of Pharmacology, 189, 223-227, 1990), effects of the inventive compounds to inhibit binding of [^3 H]-GR65630 which was radioligand 5-HT3 antagonist to 5-HT3 receptor were examined, with the results shown in Table 1.

For assay [2], the system named is 5-HT3 receptor. Briefly: 5-HT3 receptor antagonism (inhibition of 5-HT-induced bradycardia in anesthetized mice). As to conditions: 30 minutes before 5-HT 0.25 mg/kg i.v. The format is in vivo. As to the method:
In accordance with the procedure of Saxena et al. (Arch. Int. Pharmacodyn.,277, 235-252, 1985), each compound was dissolved in distilled water for injection to give different concentration and was administered intraperitoneally to mice which had been anesthetized with pentobarbital (3 animals per group), and ratio of inhibition of bradycardia induced by 5-HT administration (0.25 mg/kg, i.v.) was examined 30 minutes thereafter.

For another assay, the system named is cisplatin-treated dogs. Kind of assay: Antiemetic effect in cisplatin-treated dogs. As to conditions: 0.1 × 2 mg/kg i.v., 30 minutes before and 2 hours after cisplatin 3 mg/kg i.v.; observed over 6 hours; control 13.5. The format is in vivo. Here is the method:
Each of test dogs (2 animals per group) after 16 hours of fasting was fed with 200 g of a solid food, and cisplatin was administered to the animal 30 minutes thereafter by intravenous injection with a dose of 3 mg/kg. The test compound was dissolved in distilled water for injection and was administered by intravenous injection 30 minutes before and 2 hours after the cisplatin administration, and frequency and duration of emesis were observed over 6 hours.

Setting [3] is: 10^-7 M, read-out: Binding inhibitory ratio of [^3 H]-GR65630 at 10^-7 M.
Setting [4] is: read-out: Binding inhibitory ratio of [^3 H]-GR65630 at 10^-7 M, 10^-7 M.

Like-named read-outs stand apart in the source and are kept apart here.

Turning to `CN1CCN(c2nc3ccccc3o2)CC1` [Example 1, 2-(4-Methyl-1-piperazinyl)benzoxazole], at 5-HT3 receptor [1] (setting [3]), the inhibition at 0.1 µM came to 89.4%. Besides, in the assay with 5-HT3 receptor [2] (3 mg/kg i.p.), the “Inhibitory ratio (bradycardia induced by 5-HT)” value (“Inhibitory ratio” for short) is 76%. For `C[N+]1(C)CCN(c2nc3ccccc3o2)CC1` [Example 2, 1,1-Dimethyl-4-(benzoxazol-2-yl)piperazinium iodide], the inhibition at 0.1 µM on 5-HT3 receptor [1] (setting [4]) came to 45.5%. Regarding `C=CC[N+]1(C)CCN(c2nc3ccccc3o2)CC1.[I-]` [Example 3, 1-Allyl-1-methyl-4-(benzoxazol-2-yl)piperazinium iodide], at 5-HT3 receptor [1] (setting [3]), the inhibition at 0.1 µM stood at 52.8%. The “Inhibitory ratio” value in the assay on 5-HT3 receptor [2] (0.3 mg/kg i.p.) was 82%. The Frequency of emesis in the assay on cisplatin-treated dogs is 0 times. Regarding `C=CC[N+]1(C)CCN(c2nc3ccccc3o2)CC1` [Example 4, 1-Allyl-1-methyl-4-(benzoxazol-2-yl)piperazinium chloride], the inhibition at 0.1 µM on 5-HT3 receptor [1] (setting [4]) was 48%. Regarding `C[N+]1(CCO)CCN(c2nc3ccccc3o2)CC1.[I-]` [Example 5, 1-(2-Hydroxyethyl)-1-methyl-4-(benzoxazol-2-yl)piperazinium iodide], on 5-HT3 receptor [1] (setting [3]), the inhibition at 0.1 µM was found to be 78%. Besides, in the assay with 5-HT3 receptor [2] (0.3 mg/kg i.p.), the “Inhibitory ratio” value is 61%. For the compound `CN1CCCN(c2nc3ccccc3o2)CC1` [Example 13, 2-(4-Methyl-1-homopiperazinyl)benzoxazole], the inhibition at 0.1 µM at 5-HT3 receptor [1] (setting [3]) is 97.3%. Same read-out and setting: with `C[N+]1(C)CCCN(c2nc3ccccc3o2)CC1` [Example 14, 1,1-Dimethyl-4-(benzoxazol-2-yl)homopiperazinium iodide] the figure was 44.4%; with `C[N+]1(CCO)CCCN(c2nc3ccccc3o2)CC1` (centres unmarked) [Example 16, 1-(2-Hydroxyethyl)-1-methyl-4-(benzoxazol-2-yl)homo-piperazinium iodide], 46%. Regarding `OCCN1CCCN(c2nc3ccccc3o2)CC1` [Example 19, 2-[4-(2-Hydroxyethyl)-1-homopiperazinyl]benzoxazole], the inhibition at 0.1 µM on 5-HT3 receptor [1] (setting [3]) amounted to 54.3%. Turning to `C=CC[N+]1(C)CCN(c2nc3ccc(O)cc3o2)CC1` [Example 22, 1-Allyl-1-1-methyl-4-(6-hydroxybenzoxazol-2-yl)piperazinium iodide], the inhibition at 0.1 µM at 5-HT3 receptor [1] (setting [3]) came out at 51.6%.
